Measurements reported in patent US20090280549A1, “Method for Treating Body Fluid” (priority 2005, published 2009).

Experiments:
neutrophils = assay: ATX-S10•Na(II) uptake into neutrophils; assay type: cell-based, human
Experimental: (§1) After labeling the compound represented by formula (II) above (hereinafter referred to as “ATX-S10•Na(II)”) with ^14C, the ATX-S10•Na(II) was dissolved in saline at a concentration of approximately 1×10^−3 mol/L, and the solution was filtered and sterilized with a 0.22 μm filter and then diluted with 1% FBS (fetal bovine serum)-containing RPMI1640 medium to prepare a 5×10^−5 mol/L ATX-S10•Na(II)-added solution.
(§2) Erythrocytes, platelets, neutrophils and lymphocytes were prepared from blood sampled from three healthy persons (designated as A, B and C).
The erythrocytes, neutrophils and lymphocytes were prepared from heparinized blood. The heparinized blood and 6% dextran-added saline were mixed in a proportion of 3:1 (v:v), and the mixture was allowed to stand at room temperature for 30 minutes. The upper layer leukocyte fraction was centrifuged with a centrifuge tube (900 rpm, 10 minutes, 4° C.), and the precipitate was suspended in saline, superposed onto Ficoll-Hypaque® solution and centrifuged (1600 rpm, 30 minutes, room temperature). The intermediate layer was used as the lymphocyte fraction (containing monocytes) and the precipitate was used as the neutrophil fraction. The neutrophil fraction was suspended in ice-cold 0.2% NaCl solution for hemolysis, and then an equivalent amount of ice-cold 1.6% NaCl solution was immediately added to restore isotonicity. The crude erythrocyte fraction was diluted with KRP (Krebs-Ringer phosphate buffer) and centrifuged (2000 rpm, 5 minutes, 4° C.), and the buffy coat (leukocyte layer) was removed. This procedure was further repeated 4 times to yield the erythrocyte fraction.
(§3) After adding 400 μL of the cell suspension and 100 μL of the ATX-S10•Na(II)-added solution to each well of a 48-well microplate and mixing, the mixtures were incubated with a CO2 incubator (37° C., 5% CO2) or allowed to stand in a refrigerating chamber (approximately 4° C.). The cells were separated immediately after addition (0 hours after addition) and 1 hour, 3 hours, 20 hours and 44 hours after addition, and ATX-S10•Na(II) uptake into the cells (including cell surface binding) was measured. The uptake with standing at 4° C. corresponds to cell surface binding, and the value of the uptake with incubation at 37° C. minus the uptake with standing at 4° C. is presumed to correspond to the substantial ATX-S 10 Na(II) uptake for each type of cell.
(§4) The cell separation and uptake measurement were performed in the following manner. Specifically, 1 mL of 1.5% BSA (bovine serum albumin)-containing PBS solution (ice-cold) was placed in a 1.5 mL tube. The suspension of cells to be separated was gently pipetted and mixed, and a 100 μL portion was taken and superposed onto the 1.5% BSA-containing PBS solution. For each well, the cell suspension (300 μL) was dispensed into three tubes (n=3). After centrifugation (3200 rpm, 10 minutes, 4° C.), the medium and 1.5% BSA-containing PBS solution were removed by suction, and then the precipitate was suspended in 100 μL of PBS(−), and 1 mL of PBS(−) was further added and mixed therewith. After additional centrifugation (3000 rpm, 10 minutes, 4° C.), the supernatant was removed by suction, and the bottom of the tube, where the precipitate is present, was cut out and transferred to a counting vial. Then 4.5 mL of liquid scintillator was added and mixed therewith, and the radioactivity was measured for 5 minutes using a liquid scintillation counter. The measured radioactivity was used to calculate the ATX-S10•Na(II) uptake (pmol/10^5 cells) into the cells.
Uptake into neutrophils was measured also with addition of N-formyl-L-methionyl-L-leucyl-L-phenylalanine (hereinafter referred to as “fMLP”) (final concentration: 1×10^−7 mol/L or 1×10^−6 mol/L) or phorbol 12-myristate 13-acetate (hereinafter referred to as “PMA”) (final concentration: 1×10^−7 mol/L) to the cell suspension together with ATX-S10•Na(II).

[1] = tested on: THP-1 cells (human monocytic leukemia cells); assay: ATX-S10•Na(II) uptake into THP-1 cells; assay type: cell-based; conditions: for ATX-S10•Na(II) uptake: THP-1
Experimental: as §1
As malignant lymphoma cells and leukemia cells, there were used THP-1 cells (human monocytic leukemia cells), EoL-1 cells (human eosinophilic leukemia cells), A3/KAW cells (human malignant lymphoma cells) and KG-1 cells (human acute myeloid leukemia cells). All of the cells were cultured using 10% FBS-containing RPMI1640 medium, with subculturing 1 to 2 times per week during the culturing. The THP-1 cells and EoL-1 cells were obtained from RIKEN BioResource Center, and the A3/KAW cells and KG-1 cells were obtained from Japan Health Sciences Foundation.
as §3, §4

lymphocytes = assay: ATX-S10•Na(II) uptake into lymphocytes; assay type: cell-based, human
Experimental: as §1, §2
The erythrocytes, neutrophils and lymphocytes were prepared from heparinized blood. […]
After adding 400 μL of the cell suspension and 100 μL of the ATX-S10•Na(II)-added solution to each well of a 48-well microplate and mixing, the mixtures were incubated with a CO2 incubator (37° C., 5% CO2) or allowed to stand in a refrigerating chamber (approximately 4° C.). The cells were separated immediately after addition (0 hours after addition) and 1 hour, 3 hours, 20 hours and 44 hours after addition, and ATX-S10•Na(II) uptake into the cells (including cell surface binding) was measured. […]
The cell separation and uptake measurement were performed in the following manner. […] Then 4.5 mL of liquid scintillator was added and mixed therewith, and the radioactivity was measured for 5 minutes using a liquid scintillation counter. […]

SMILES: C=Cc1c(C)c2cc3nc(cc4[nH]c(cc5nc(cc1[nH]2)C(C)=C5CCC(=O)NC(CC(=O)[O-])C(=O)[O-])c(CCC(=O)NC(CC(=O)[O-])C(=O)[O-])c4C)C(C)(O)/C3=C\C=NO.[Na+].[Na+].[Na+].[Na+] (stereo not drawn) [ATX-S10•Na(II)]
- ATX-S10•Na(II) uptake (neutrophils; Neutrophil (A), donor A, 0 hr, immediately after addition): 0.21 pmol/10^5 cells
- ATX-S10•Na(II) uptake (neutrophils; Neutrophil (A), 3 hr, incubation at 37° C.): 0.38 pmol/10^5 cells
- ATX-S10•Na(II) uptake (neutrophils; Neutrophil (A), 3 hr, standing at 4° C.): 0.46 pmol/10^5 cells
- ATX-S10•Na(II) uptake (neutrophils; Neutrophil (A), 20 hr, incubation at 37° C.): 4.93 pmol/10^5 cells
- ATX-S10•Na(II) uptake (neutrophils; Neutrophil (A), 20 hr, standing at 4° C.): 0.57 pmol/10^5 cells
- ATX-S10•Na(II) uptake (neutrophils; Neutrophil (B), 3 hr, incubation at 37° C.): 0.40 pmol/10^5 cells
- ATX-S10•Na(II) uptake (neutrophils; Neutrophil (B), 3 hr, standing at 4° C.): 1.27 pmol/10^5 cells
- ATX-S10•Na(II) uptake (neutrophils; Neutrophil (B), 20 hr, incubation at 37° C.): 4.04 pmol/10^5 cells
- ATX-S10•Na(II) uptake (neutrophils; Neutrophil (B), 20 hr, standing at 4° C.): 0.47 pmol/10^5 cells
- ATX-S10•Na(II) uptake (neutrophils; Neutrophil (B), 44 hr, incubation at 37° C.): 16.32 pmol/10^5 cells
- ATX-S10•Na(II) uptake (neutrophils; Neutrophil (B), 44 hr, standing at 4° C.): 0.68 pmol/10^5 cells
- ATX-S10•Na(II) uptake (neutrophils; Neutrophil (C), 3 hr, incubation at 37° C.): 0.72 pmol/10^5 cells
- ATX-S10•Na(II) uptake (neutrophils; Neutrophil (C), 3 hr, standing at 4° C.): 0.36 pmol/10^5 cells
- ATX-S10•Na(II) uptake (neutrophils; Neutrophil (C), 20 hr, incubation at 37° C.): 10.13 pmol/10^5 cells
- ATX-S10•Na(II) uptake (neutrophils; Neutrophil (C), 20 hr, standing at 4° C.): 0.95 pmol/10^5 cells
- ATX-S10•Na(II) uptake (neutrophils; Neutrophil stimulated with 1×10^−6 mol/L fMLP, 3 hr, incubation at 37° C.): 0.75 pmol/10^5 cells
- ATX-S10•Na(II) uptake (neutrophils; Neutrophil stimulated with 1×10^−6 mol/L fMLP, 3 hr, standing at 4° C.): 2.02 pmol/10^5 cells
- ATX-S10•Na(II) uptake (neutrophils; Neutrophil stimulated with 1×10^−6 mol/L fMLP, 20 hr, incubation at 37° C.): 3.57 pmol/10^5 cells
- ATX-S10•Na(II) uptake (neutrophils; Neutrophil stimulated with 1×10^−6 mol/L fMLP, 20 hr, standing at 4° C.): 0.57 pmol/10^5 cells
- ATX-S10•Na(II) uptake (neutrophils; Neutrophil stimulated with 1×10^−6 mol/L fMLP, 44 hr, incubation at 37° C.): 14.14 pmol/10^5 cells
- ATX-S10•Na(II) uptake (neutrophils; Neutrophil stimulated with 1×10^−6 mol/L fMLP, 44 hr, standing at 4° C.): 3.28 pmol/10^5 cells
- ATX-S10•Na(II) uptake (neutrophils; Neutrophil stimulated with 1×10^−7 mol/L PMA, 3 hr, incubation at 37° C.): 4.45 pmol/10^5 cells
- ATX-S10•Na(II) uptake (neutrophils; Neutrophil stimulated with 1×10^−7 mol/L PMA, 3 hr, standing at 4° C.): 2.76 pmol/10^5 cells
- ATX-S10•Na(II) uptake (neutrophils; Neutrophil stimulated with 1×10^−7 mol/L PMA, 20 hr, incubation at 37° C.): 7.33 pmol/10^5 cells
- ATX-S10•Na(II) uptake (neutrophils; Neutrophil stimulated with 1×10^−7 mol/L PMA, 20 hr, standing at 4° C.): 1.09 pmol/10^5 cells
- ATX-S10•Na(II) uptake (neutrophils; Neutrophil stimulated with 1×10^−7 mol/L fMLP, 3 hr, incubation at 37° C.): 0.79 pmol/10^5 cells
- ATX-S10•Na(II) uptake (neutrophils; Neutrophil stimulated with 1×10^−7 mol/L fMLP, 3 hr, standing at 4° C.): 0.97 pmol/10^5 cells
- ATX-S10•Na(II) uptake (neutrophils; Neutrophil stimulated with 1×10^−7 mol/L fMLP, 20 hr, incubation at 37° C.): 2.67 pmol/10^5 cells
- ATX-S10•Na(II) uptake (neutrophils; Neutrophil stimulated with 1×10^−7 mol/L fMLP, 20 hr, standing at 4° C.): 0.50 pmol/10^5 cells
- uptake after stimulation compared with unstimulated cells (neutrophils; neutrophils after stimulation with WILP or PMA): no increase in uptake
- uptake compared between cell types (neutrophils; neutrophils versus EoL-1, THP-1 and A3/KAW cells): higher than EoL-1 cells, although not as high as THP-1 cells or A3/KAW cells
- substantial uptake of ATX-S10•Na(II) (uptake at 37° C. minus uptake at 4° C.) (neutrophils; neutrophils, course over incubation time): increased with incubation time
- ATX-S10•Na(II) uptake ([1]; 0 hr, immediately after addition): 0.56 pmol/10^5 cells
- ATX-S10•Na(II) uptake ([1]; 1 hr, incubation at 37° C.): 3.30 pmol/10^5 cells
- ATX-S10•Na(II) uptake ([1]; 1 hr, standing at 4° C.): 1.43 pmol/10^5 cells
- ATX-S10•Na(II) uptake ([1]; 3 hr, incubation at 37° C.): 4.73 pmol/10^5 cells
- ATX-S10•Na(II) uptake ([1]; 3 hr, standing at 4° C.): 2.88 pmol/10^5 cells
- ATX-S10•Na(II) uptake ([1]; 20 hr, incubation at 37° C.): 18.39 pmol/10^5 cells
- ATX-S10•Na(II) uptake ([1]; 20 hr, standing at 4° C.): 5.37 pmol/10^5 cells
- ATX-S10•Na(II) uptake ([1]; 44 hr, incubation at 37° C.): 33.21 pmol/10^5 cells
- ATX-S10•Na(II) uptake ([1]; 44 hr, standing at 4° C.): 1.94 pmol/10^5 cells
- uptake compared between cell types ([1]; THP-1 cells versus A3/KAW, KG-1 and EoL-1 cells): highest
- substantial uptake of ATX-S10•Na(II) (uptake at 37° C. minus uptake at 4° C.) ([1]; THP-1 cells, course over incubation time): increased with incubation time
- uptake compared between cell types (lymphocytes; lymphocytes versus EoL-1, THP-1 and A3/KAW cells): higher than EoL-1 cells, although not as high as THP-1 cells or A3/KAW cells
- substantial uptake of ATX-S10•Na(II) (uptake at 37° C. minus uptake at 4° C.) (lymphocytes; lymphocytes, course over incubation time): increased with incubation time
